Data reported in the NIST ThermoML archive (doi:10.1021/je900056u).

Tests used:
[1] = 101 kPa, Liquid; for speed of sound: Linear variable-path acoustic interferometer; for mass density: Pycnometric method
[2] = xn = mol fraction of the nth substance listed; settings: 101 kPa, Liquid; for speed of sound: Linear variable-path acoustic interferometer; for mass density: Pycnometric method

CC(=O)CC(C)C [4-methylpentan-2-one]
[1]
Settings	mass density [kg/m3]	speed of sound [m/s]
303.15 K	791.7	1175
308.15 K	787.7	1156
313.15 K	782.6	1138

CC(=O)CC(C)C [4-methylpentan-2-one] + O=S1(=O)CCCC1
[2], x2 = 0
Settings	mass density [kg/m3]	speed of sound [m/s]
303.15 K	791.7	1175
308.15 K	787.7	1156
313.15 K	782.6	1138

CCC(C)=O [butanone]
[1]
Settings	mass density [kg/m3]	speed of sound [m/s]
303.15 K	794.6	1178
308.15 K	790.4	1158
313.15 K	783.1	1136

CCC(C)=O [butanone] + O=S1(=O)CCCC1
[2], x2 = 0
Settings	mass density [kg/m3]	speed of sound [m/s]
303.15 K	794.6	1178
308.15 K	790.4	1158
313.15 K	783.1	1136

CCCC(C)=O [pentan-2-one]
[1]
Settings	mass density [kg/m3]	speed of sound [m/s]
303.15 K	796.6	1192
308.15 K	792.7	1176
313.15 K	785.5	1151

CCCC(C)=O [pentan-2-one] + O=S1(=O)CCCC1
[2]
Settings	mass density, 303.15 K [kg/m3]	mass density, 308.15 K [kg/m3]	mass density, 313.15 K [kg/m3]	speed of sound, 303.15 K [m/s]	speed of sound, 308.15 K [m/s]	speed of sound, 313.15 K [m/s]
x2 = 0	796.6	792.7	785.5	1192	1176	1151
x2 = 0.0261	808.2	804.2	797.8	1203	1183	1161
x2 = 0.162	869.2	864.6	858.8	1246	1225	1203
x2 = 0.2945	929.2	924.8	919.1	1290	1271	1251
x2 = 0.445	998.5	994.6	989.1	1352	1340	1318
x2 = 0.5296	1038.2	1034.5	1029.1	1384	1373	1353
x2 = 0.6319	1086.6	1082.8	1078	1429	1418	1401
x2 = 0.7498	1143.2	1139.2	1134.7	1484	1469	1450
x2 = 0.8677	1200.2	1195.8	1191.6	1536	1520	1503
x2 = 0.9799	1253.2	1248.5	1243.6	1580	1562	1549

CCC(=O)CC [pentan-3-one]
[1]
Settings	mass density [kg/m3]	speed of sound [m/s]
303.15 K	804.5	1197
308.15 K	799.6	1179
313.15 K	794.3	1160

CCC(=O)CC [pentan-3-one] + O=S1(=O)CCCC1
[2]
Settings	mass density, 303.15 K [kg/m3]	mass density, 308.15 K [kg/m3]	mass density, 313.15 K [kg/m3]	speed of sound, 303.15 K [m/s]	speed of sound, 308.15 K [m/s]	speed of sound, 313.15 K [m/s]
x2 = 0	804.5	799.6	794.3	1197	1179	1160
x2 = 0.0252	815.9	811.1	805.8	1208	1191	1170
x2 = 0.1627	878.1	873.1	867.6	1257	1240	1218
x2 = 0.2922	937.4	931.9	926.6	1300	1283	1263
x2 = 0.4201	996.2	991.1	985.6	1345	1331	1315
x2 = 0.5234	1044.1	1039.1	1033.7	1388	1376	1361
x2 = 0.6292	1093.5	1088.4	1083.1	1435	1421	1406
x2 = 0.7487	1149.4	1144.2	1139.3	1490	1473	1460
x2 = 0.8644	1202.8	1198.1	1193.2	1536	1520	1506
x2 = 0.9804	1253.5	1250	1244.6	1579	1566	1550

O=S1(=O)CCCC1 [sulfolane]
[1]
Settings	mass density [kg/m3]	speed of sound [m/s]
303.15 K	1261.8	1588
308.15 K	1257	1576
313.15 K	1251.6	1558

O=S1(=O)CCCC1 [sulfolane] + CC(=O)CC(C)C
[2]
Settings	mass density, 303.15 K [kg/m3]	mass density, 308.15 K [kg/m3]	mass density, 313.15 K [kg/m3]	speed of sound, 303.15 K [m/s]	speed of sound, 308.15 K [m/s]	speed of sound, 313.15 K [m/s]
x1 = 0.0287	803.4	799.3	793.9	1185	1166	1147
x1 = 0.1852	866.6	862.5	856.8	1233	1215	1198
x1 = 0.3272	927.3	923.3	917.6	1281	1263	1247
x1 = 0.4634	989.2	985.1	979.7	1335	1316	1300
x1 = 0.5671	1038.9	1034.6	1029.3	1381	1361	1345
x1 = 0.6671	1088.8	1083.9	1078.5	1426	1407	1391
x1 = 0.7777	1145.1	1140.7	1134.1	1479	1463	1447
x1 = 0.8809	1198.5	1195.1	1187.8	1530	1513	1496
x1 = 0.9829	1252.3	1249.2	1242.3	1578	1564	1550
x1 = 1	1261.8	1257	1251.6	1588	1576	1558

O=S1(=O)CCCC1 [sulfolane] + CCC(=O)CC
[2], x1 = 1
Settings	mass density [kg/m3]	speed of sound [m/s]
303.15 K	1261.8	1588
308.15 K	1257	1576
313.15 K	1251.6	1558

O=S1(=O)CCCC1 [sulfolane] + CCC(C)=O
[2]
Settings	mass density, 303.15 K [kg/m3]	mass density, 308.15 K [kg/m3]	mass density, 313.15 K [kg/m3]	speed of sound, 303.15 K [m/s]	speed of sound, 308.15 K [m/s]	speed of sound, 313.15 K [m/s]
x1 = 0.0293	810.6	806.2	799.2	1191	1170	1149
x1 = 0.1391	869.7	865.6	858.7	1234	1215	1195
x1 = 0.2575	931.6	927.5	920.9	1288	1266	1247
x1 = 0.3803	993.5	989.6	983.5	1341	1319	1300
x1 = 0.4834	1043.1	1039.9	1034.4	1386	1366	1346
x1 = 0.5854	1089.7	1086.6	1081.8	1431	1413	1395
x1 = 0.7119	1145.2	1142	1137.2	1481	1465	1450
x1 = 0.8428	1200.5	1196.8	1191.8	1533	1517	1502
x1 = 0.9756	1252.7	1249	1243.7	1581	1568	1552
x1 = 1	1261.8	1257	1251.6	1588	1576	1558

O=S1(=O)CCCC1 [sulfolane] + CCCC(C)=O
[2], x1 = 1
Settings	mass density [kg/m3]	speed of sound [m/s]
303.15 K	1261.8	1588
308.15 K	1257	1576
313.15 K	1251.6	1558
